How the values were obtained:
Type in all cases: in vivo
[1] = tested on: Arabidopsis thaliana Columbia-0; experiment: Arabidopsis 96-well plate anthocyanin quantification
Procedure: Col-0 ecotype Arabidopsis seeds were sown in 96-well plates containing 150 μl of low phosphate modMS liquid medium containing 1% of sucrose. Compounds was added in 50 μM concentration (1% DMSO). Eight plants per repeat were collected 7 days after germination and put into a fresh Eppendorf. Extraction and quantification of anthocyanin levels was carried out according to The Plant cell 2013, 25:1641-1656. Anthocyanin levels were quantified by measuring absorption at 530 and 657 nm using a spectrophotometer and normalized to fresh weight input, and expressed relative to the low phosphate control. For pot experiments, the same procedure was followed with one 4-week old plant per sample.

[2] = tested on: Arabidopsis thaliana Columbia-0; experiment: Arabidopsis horizontal plate leaf area assay
Procedure: All Arabidopsis plant experiments were performed using the Arabidopsis thaliana Columbia-0 background. The Arabidopsis pSPX1::GUS line is described in the […] 2008, 54: 965-975. For rice, the cultivar Nipponbare was used. For maize, the cultivars DKC 2931 and 8104 were used for regular pot experiments and sand-based pot experiments, respectively. For soybean, the cultivar Primus was used. […] The medium was solidified due to the addition of 0.6% Gelrite, unless stated otherwise. In case of vertical plates (root length and root hair measurements), the medium was supplied with 0.5% of sucrose and 1 μM (low phosphate, 1 μM KH2PO4, 9.9 mM KCl), 10 μM (low phosphate 10 μM KH2PO4, 9.9 mM KCl) or 1.25 mM KH2PO4 (high phosphate). Arabidopsis seeds were stratified for 2 days at 4° C. before germination. Seedlings were germinated in climate-controlled growth chambers at 22° C. under continuous light ([…] m^−2 s^−1). Husked rice seeds were germinated on wetted Whatman paper for 2 days at 37° C. and then transferred to Sterivent boxes or square Petri dishes with solid medium. Maize and soybean seeds were wetted 24 hours at room temperature prior to sowing in pots.
Arabidopsis primary root growth experiments were done on MS1/2 on vertical standing plates and roots were measured 11 days after germination. Roots were imaged using a flatbed scanner (EPSON Expression 11000XL) and root length was measured using ImageJ software. Arabidopsis shoot biomass was determined in 11 days after germination and growth on vertical standing plates with modMS. Arabidopsis leaf area was measured 21 days after germination on horizontal plates with modMS medium. Plates were scanned from the top using a flatbed scanner (EPSON Expression 11000XL) and the visible leaf area was measured using ImageJ software. Rice plate experiments used vertically standing Petri dishes containing MS1/2 medium (low phosphate—0.001 mM) solidified with 0.8% washed agar. Plant height was measured 11 days after germination. Rice box experiments used modMS medium and a low phosphate condition of 0.025 mM phosphate. Plant height was measured 13 days after germination. All growth experiments occurred with 10 μM of compound and in low phosphate conditions, unless stated otherwise. Controls always received the same DMSO concentration.

soybean cultivar Primus = experiment: Soybean pot experiment; details: low phosphate, 4 weeks
Procedure: All Arabidopsis plant experiments were performed using the Arabidopsis thaliana Columbia-0 background. The Arabidopsis pSPX1::GUS line is described in the […] 2008, 54: 965-975. For rice, the cultivar Nipponbare was used. For maize, the cultivars DKC 2931 and 8104 were used for regular pot experiments and sand-based pot experiments, respectively. For soybean, the cultivar Primus was used. […] The medium was solidified due to the addition of 0.6% Gelrite, unless stated otherwise. […]
Regular Arabidopsis, soybean and maize pot experiments used an unfertilized potting soil, which was supplemented at the start of the experiment with 50 ml H2O containing 0.25 g/l NH4NO3 and 0.44 g/l (high phosphate) or no (maize and soybean) or 0.11 g/l KH2PO (Arabidopsis) for low phosphate conditions. […] Compound concentration was 10 μM, calculated based on the total water content after watering, and was added at the start of the experiment (Arabidopsis) or once a week (maize). […] All parameters in the sand experiment, except the rate of leaf 4 (measured the first 4 days after emergence), were measured 19 days after sowing. Measurements in the pot experiments with potting soil were done after 4 weeks of growth, except for leaf 5, which was measured at 26 days. […]

CCN(CCCNc1ncnc2nc(N)ccc12)c1ccccc1 [Example 1]
Anthocyanin level in the leaves (in words) ([1]; 96-well plate assay): reduced
Relative anthocyanin level ([1]; Arabidopsis 96-well plate, low phosphate, 50 μM compound, 7 days after germination, relative to control (=1)): 0.6
Leaf area ([2]; Arabidopsis horizontal plate, low phosphate, 10 μM compound, 21 days after germination (Table 1)): 94 mm^2
Leaf area in suboptimal phosphate conditions ([2]; Arabidopsis horizontal plate, suboptimal phosphate (600 μM), 10 μM compound): 120 mm^2
Average leaf area ([2]; Arabidopsis horizontal plates (Table 4), control without compound 63): 66 mm^2
Biomass (soybean cultivar Primus): 4.4 g
Plant height (soybean cultivar Primus): 63 cm

Reference: patent publication US20240306641A1, “P-BOOSTER” (EUROCHEM ANTWERPEN, priority 2021, published 2024)
